Patent US20260285853A1, “COMPOUNDS AND METHODS FOR MODULATING SPLICING” (REMIX THERAPEUTICS INC., priority 2023, published 2026)
Where two headings read alike, the source gives them in different places.

Tests used:
Assay type in all cases: cell-based
MYB mRNA [1] = experiment: Splicing RT-qPCR assay (THP), Table 2A
[2] = system: SH-SY5Y (human neuroblastoma) cells; experiment: Cell viability, Cell Titer Glo 2.0 assay; settings: read-out: Viability SHSY5Y.3 GI50
Procedure, shortened: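 CellTiter-Glo 2.0 luminescence read-out after 72 h compound exposure (37 °C, 5% CO2); medium-only wells as blank. DMSO 0.1% final.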

HTT mRNA [3] = experiment: Splicing RT-qPCR assay (THP), Table 2A
HTT mRNA [4] = experiment: Gene panel canonical junction qPCR assay, decrease in CJ mRNA, Table 3
Procedure, shortened: (§1)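 Cells: A673 or K562; 24 h compound exposure, 37 °C, 5% CO2; 11-pt 3-fold series from 10 uM final; DMSO ≤0.25%. Lysate → cDNA → qPCR with junction-spanning primers/probe for CJ transcript. ΔCt vs housekeeper, ΔΔCt vs DMSO, 2^(−ΔΔCt), % response, 4PL → IC50.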

MYB mRNA [5] = experiment: as above
Procedure, shortened: as §1

[6] = Table 2A, THP, MYB alternative junction (AJ) mRNA, read-out: MYB AJ (AC50, increase in alternative junction mRNA)
[7] = Table 2A, THP, MYB canonical junction (CJ) mRNA, read-out: MYB CJ (IC50, decrease in canonical junction mRNA)
[8] = Table 2A, THP, HTT alternative junction (AJ) mRNA, read-out: HTT AJ (AC50, increase in alternative junction mRNA)
[9] = Table 2A, THP, HTT canonical junction (CJ) mRNA, read-out: HTT CJ (IC50, decrease in canonical junction mRNA)
[10] = decrease in CJ mRNA levels, canonical junction qPCR, gene panel
[11] = Table 2A (THP), AJ mRNA increase, read-out: MYB AJ (increase in alternative junction mRNA, AC50)
[12] = Table 2A (THP), CJ mRNA decrease, read-out: MYB CJ (decrease in canonical junction mRNA, IC50)
[13] = Table 2A (THP), AJ mRNA increase, read-out: HTT AJ (increase in alternative junction mRNA, AC50)
[14] = Table 2A (THP), CJ mRNA decrease, read-out: HTT CJ (decrease in canonical junction mRNA, IC50)
[15] = decrease in canonical junction (CJ) mRNA, gene panel qPCR, Table 3

Compound | AC50 (MYB mRNA [1]; [6]) [µM] | IC50 (MYB mRNA [1]; [7]) [nM] | GI50 [2] [nM] | AC50 (HTT mRNA [3]; [8]) [µM] | IC50 (HTT mRNA [3]; [9]) [µM] | IC50 (HTT mRNA [4]; [10]) [µM] | IC50 (MYB mRNA [5]; [10]) [nM] | AC50 (MYB mRNA [1]; [11]) [µM] | IC50 (MYB mRNA [1]; [12]) [nM] | AC50 (HTT mRNA [3]; [13]) [µM] | IC50 (HTT mRNA [3]; [14]) [µM] | IC50 (HTT mRNA [4]; [15]) [µM] | IC50 (MYB mRNA [5]; [15]) [nM]
COc1nc2c(C(=O)Nc3cc(F)c4nn(C)cc4c3)ccc(N3C[C@@H](C)N[C@@H](C)C3)c2s1 [Compound 720] | < 0.1 | < 100 | < 100 | 0.1 to 1 | 0.1 to 1 | 0.1 to 1 | < 100 |  |  |  |  |  | 
Cc1cn2cc(NC(=O)c3c(F)cc(N4CCC(NC5CC5)CC4)c4cn(C)nc34)cc(Oc3cccnn3)c2n1 [Compound 409] |  |  | > 10000 |  |  |  |  | 1 to 10 | 100 to 1000 | > 10 | 1 to 10 | 1 to 10 | 100 to 1000
Cc1cn2cc(NC(=O)c3ccc(N4CCC(NC5CC5)CC4)c4cn(C)nc34)nc2c(CN2CCCCS2(=O)=O)n1 [Compound 795] | > 10 | > 10000 | 1000 to 10000 | > 10 | > 10 | > 10 | > 10000 |  |  |  |  |  | 
Cc1nc2c(C(=O)Nc3cc(F)c4nn(C)cc4c3)ccc(N3C[C@H](C)N[C@@H](C)C3)c2s1 [Compound 780] | < 0.1 | < 100 | < 100 | 0.1 to 1 | 0.1 to 1 | 0.1 to 1 | < 100 |  |  |  |  |  | 
COc1c(NC(=O)c2c(F)cc(N3CCS(=N)(=O)CC3)c3cn(C)nc23)cn2cc(C)nc2c1F [Compound 330, 6-fluoro-N-(8-fluoro-7-meth-oxy-2-methyl-imidazo[1,2-a]-pyridin-6-yl)-4-(1-imino-1-oxo-1,4-thiazinan-4-yl)-2-methyl-indazole-7-carboxamide] |  |  | > 10000 |  |  |  |  | 0.1 to 1 | 1000 to 10000 | > 10 | > 10 | > 10 | 1000 to 10000
COc1nc2c(C(=O)Nc3cccc4c3cnn4C)ccc(N3C[C@H](C)N[C@@H](C)C3)c2s1 [Compound 715] | > 10 | > 10000 | 100 to 1000 | > 10 | > 10 | > 10 | > 10000 |  |  |  |  |  | 
CNC1CCN(c2ccc(NC(=O)c3cc4cn(C)nc4cc3OC)c3nn(C)cc23)CC1 [Compound 521, 6-methoxy-2-methyl-N-[2-methyl-4-[4-(methylamino)-1-piperidyl]indazol-7-yl]-indazole-5-carboxamide] |  |  | > 10000 |  |  |  |  | > 10 | > 10000 | > 10 | > 10 | > 10 | > 10000
COc1cc2nn(C)cc2cc1C#Cc1c(F)cc(N2CCC(NC3CC3)CC2)c2cn(C)nc12 [Compound 446, N-cyclo-propyl-1-[6-fluoro-7-[2-(6-methoxy-2-methyl-indazol-5-yl)-ethynyl]-2-methyl-indazol-4-yl]-piperidin-4-amine] |  |  | 1000 to 10000 |  |  |  |  | > 10 | 1000 to 10000 | > 10 | 1 to 10 | 1 to 10 | 1000 to 10000
Cc1cn2cc(NC(=O)c3c(F)cc(N4CCC(NC5CC5)CC4)c4cn(C)nc34)c(Oc3ccccc3)c(F)c2n1 [Compound 377, 4-[4-(cyclopropylamino)-1-piperidyl]-6-fluoro-N-(8-fluoro-2-methyl-7-phenoxyimidazo [1,2-a]pyridin-6-yl)-2-methyl-indazole-7-carboxamide] |  |  | < 100 |  |  |  |  | < 0.1 | < 100 | < 0.1 | < 0.1 | < 0.1 | < 100
Cc1nc(CNS(C)(=O)=O)cn2cc(NC(=O)c3c(F)cc(N4CCC(NC5CC5)CC4)c4cn(C)nc34)nc12 [Compound 416, 4-(4-(cyclopropylamino)-piper-idin-1-yl)-6-fluoro-2-meth-yl-N-(8-methyl-6-(methyl-sulfonamidomethyl)-imidazo[1,2-a]pyrazin-2-yl)-2H-indazole-7-carbox-amide 2,2,2-trifluoroacetate] |  |  | > 10000 |  |  |  |  | > 10 | > 10000 | > 10 | > 10 | > 10 | > 10000
